Source: patent publication US12508323B2, “Method of treatment of colorectal, breast and lung cancer with metal containing immune agonist complexes” (HANGZHOU XINGAO BIOTECHNOLOGY CO., LTD., priority 2020, dated 2025)

How the values were obtained:
[1] = tested on: breast cancer cell line 4T1; experiment: Subcutaneous transplantation tumor model, 4T1 in BALB/C mice; type: in vivo; settings: i.p. 10 mg/kg (nanobody 200 μg/mouse) once a day for 21 days
Experimental: Specific pathogen free (SPF)-grade BALB/C and C57BL/6 male mice, aged 7-8 weeks and weighing 20-22 g, were purchased from Shanghai Slac Laboratory Animal Co., Ltd (Laboratory animal quality certificate number: SCXK (Shanghai)2007-0005.
Mice were injected intraperitoneally with the immune agonist or complex with a dose of 10 mg/kg, or each injected intraperitoneally with 200 μg of the nanobody.
(§1) Administration route: intraperitoneal injection.
(§2) Frequency: once a day for consecutive 21 days.
Cancer cells were cultured, passaged, collected at the logarithmic phase of cells, and prepared into a cell suspension at a concentration of (1.0×10^7) per ml. Mice were injected with 0.2 ml of the cell suspension at the axilla of the right forelimb (cell number 2.0×10^6 cells/each), and were tumorigenic in about 8 days. These mice were randomly divided into 10 groups equally, namely, group A: negative control group (saline group), group B: positive control (cGAMP) group (dose: 10 mg/kg), group C: MncGAMP group (dose: 10 mg/kg), group D: anti-PD-L1 nanobody group, group E: anti-CD47 nanobody group, group F: anti-TfR1 nanobody group, group G: complex V group (dose: 10 mg/kg), group H: complex VI group (dose: 10 mg/kg), group I: complex IX group (dose: 10 mg/kg), and group J: complex VIII group (10 mg/kg). […]
The data were expressed as ×±s and processed by SPSS10.0 software. […]

TREM2 = TREM2 expression in brain tissues of AD mice; type: in vivo; settings: 10 mg/kg i.p., 60 days of administration
Text: ELISA kits were purchased from Cloud Clone. Flow cytometry nanobodies were purchased from eBiosciences. RT-PCR reagents were purchased from Takara. Immune fluorescence and immune histochemistry nanobodies were purchased from Abcam. Other reagents were purchased from Sigma-Aldrich. Primer synthesis was done by Shanghai Biotechnology Co. Laser confocal microscope was purchased from Leica (Germany). 7500 quantitative PCR instrument was purchased from Applied Biosystems ABI (USA). Light microscope was purchased from Leica (Germany). Enzyme marker was purchased from Hangzhou Aosheng Company. Attune flow cytometer was purchased from Thermo Fisher Scientific. RT-PCR in vitro TREM2 content was determined, and the TREM2 primer sequences were as follows:
Whether mRNA levels of TREM2 in brain tissues of mice were altered after administration of the immune agonist and complexes thereof was determined.

[2] = tested on: murine breast cancer cell line 4T1-luc; experiment: Anti-metastasis of murine breast cancer 4T1-luc, in vivo optical imaging; settings: 4T1-luc in BALB/C mice, i.p. 10 mg/kg (nanobody 200 μg/mouse) once a day, sites of metastasis
Experimental: Specific pathogen free (SPF)-grade BALB/C male mice, aged 7-8 weeks and weighing 20-22 g, were purchased from Shanghai Slac Laboratory Animal Co., Ltd (Laboratory animal quality certificate number: SCXK (Shanghai)2007-0005.
Mice were injected intraperitoneally with the immune agonist complex or MncGAMP with a dose of 10 mg/kg, or each injected intraperitoneally with 200 μg of the nanobody.
as §1, §2
Used herein was murine breast cancer cell line 4T1-luc (luciferase labeled tumor cells), which was provided by medical department of Zhejiang University School. The 4T1-luc cell line in BALB/C mice had similar growth and metastatic properties to breast tumors in humans, which was an animal model for […] breast cancer in humans. The 4T1-luc cell line spontaneously produced highly metastatic tumors that metastasize to the lung, liver, lymph nodes, and brain, while forming the primary site at the injection site. Luciferase was a general term for a class of enzymes in living organisms that catalyze the oxidative luminescence of luciferin or firefly aldehyde, which was derived from organisms naturally capable of luminescence.
Cancer cells were cultured, passaged, collected at the logarithmic phase of cells, and prepared into a cell suspension at a concentration of (1.0×10^7) per ml. Mice were injected with 0.2 ml of the cell suspension at the axilla of the right forelimb (2.0×10^6 cells/each), and were injected with drugs the day after inoculation with breast cancer cells. […]
Metastasis of murine breast cancer in mice was detected using a small animal in vivo optical imaging system (Perkin Elmer, IVIS Lumina XRMS Series III) on days 5, 10, 20, and 30 after drug administration, respectively, which was done at Shanghai Medical College of Fudan University.

Nc1nc(=O)c2ncn(C3OC4COP(=O)(O)OC5C(COP(=O)(O)OC3C4O)OC(n3cnc4c(N)ncnc43)C5O)c2[nH]1 (stereo not drawn) [cGAMP, 2′3′-cGAMP]
Average tumor weight ([1]; n = 10, mean ± SD): 0.862 ± 0.156 g
Average tumor inhibition rate (%) ([1]; vs negative control tumor weight): 61.9%
TREM2 (TREM2): 55.38 ± 0.27 pg/mg
Metastasis of breast cancer, Day 5 ([2]; day 5 after drug administration): No
Metastasis of breast cancer, Day 10 ([2]; day 10 after drug administration): No
Metastasis of breast cancer, Day 20 ([2]; day 20 after drug administration): No
